# Entries after “also recorded” stand apart in the source; their conditions may differ. Where two headings read alike, the source gives them in different places. Square brackets hold non-standard residues; d marks the D form. Peptide text beside a SMILES is read from it. * marks the point of attachment. sY = N[C@@H](Cc1ccc(OS(=O)(=O)O)cc1)C(=O)O; Cbz = O=C(OCc1ccccc1)*; Boc = CC(C)(C)OC(=O)*
# Key:
# CCK receptor (brain) = target: T1, CCK receptor (brain) (Cavia porcellus, UniProt H0VZC5); assay: CCK Receptor Binding (Brain), inhibition of 125I-CCK-8 binding; parameters: species or system Male Hartley guinea pigs
# T1 construct: the cortex was removed and homogenized in 25 mL ice-cold 0.32M sucrose; from tissue; host or cells: guinea pig brain cortex P2 membranes (male Hartley)
# T1 sequence (H0VZC5 1-426): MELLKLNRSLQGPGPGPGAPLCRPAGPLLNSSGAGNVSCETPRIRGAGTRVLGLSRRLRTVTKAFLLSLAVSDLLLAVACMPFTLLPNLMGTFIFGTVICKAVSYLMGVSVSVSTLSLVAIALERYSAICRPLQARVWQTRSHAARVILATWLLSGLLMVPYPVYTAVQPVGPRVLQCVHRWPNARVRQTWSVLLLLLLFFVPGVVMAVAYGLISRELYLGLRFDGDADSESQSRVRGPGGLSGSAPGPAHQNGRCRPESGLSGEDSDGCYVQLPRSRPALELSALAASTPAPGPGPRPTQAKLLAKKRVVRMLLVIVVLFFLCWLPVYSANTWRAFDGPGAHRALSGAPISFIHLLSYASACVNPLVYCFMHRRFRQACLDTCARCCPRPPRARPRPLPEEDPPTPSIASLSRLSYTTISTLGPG
# Procedure: CCK-8 sulphated was radiolabelled and the binding was performed according to the description for the pancreas method with minor modifications.
# Male Hartley guinea pigs (300-500 g) were sacrificed by decapitation and the cortex was removed and homogenized in 25 mL ice-cold 0.32M sucrose. The homogenates were centrifuged at 1000 g for 10 minutes and the resulting supernatant was recentrifuged at 20,000 g for 20 minutes. […] All assays were run in duplicate. The reaction mixtures were incubated at 25° C. for 2 hours and then the reaction was terminated on Whatman GF/C filters by rapid filtration (Brandell 24 well cell Harvester) with 3×5 ml washes of cold 100 mM NaCl. The radioactivity on the filters was then counted with a LKB gamma counter.
# (§1) Drug displacement studies were performed with at least 10 concentrations of compounds of formula 1 and the IC50 values were determined by regression analysis.
# brain CCK (CCK-B) = conditions: in words; cited from earlier work
# CCK receptor = conditions: in words; cited from earlier work
# CCK receptor (pancreas) = target: T2, CCK receptor (pancreas) (Rattus norvegicus, UniProt P30551); assay: CCK Receptor Binding (Pancreas), inhibition of 125I-CCK-8 binding; parameters: species or system Male Sprague-Dawley rats; conditions: 125I-CCK-8 50 pM, 25° C., 2 hours
# T2 construct: The whole pancreas was dissected free of fat tissue and was homogenized; from tissue; host or cells: rat pancreas membranes (male Sprague-Dawley)
# T2 sequence (P30551 1-444): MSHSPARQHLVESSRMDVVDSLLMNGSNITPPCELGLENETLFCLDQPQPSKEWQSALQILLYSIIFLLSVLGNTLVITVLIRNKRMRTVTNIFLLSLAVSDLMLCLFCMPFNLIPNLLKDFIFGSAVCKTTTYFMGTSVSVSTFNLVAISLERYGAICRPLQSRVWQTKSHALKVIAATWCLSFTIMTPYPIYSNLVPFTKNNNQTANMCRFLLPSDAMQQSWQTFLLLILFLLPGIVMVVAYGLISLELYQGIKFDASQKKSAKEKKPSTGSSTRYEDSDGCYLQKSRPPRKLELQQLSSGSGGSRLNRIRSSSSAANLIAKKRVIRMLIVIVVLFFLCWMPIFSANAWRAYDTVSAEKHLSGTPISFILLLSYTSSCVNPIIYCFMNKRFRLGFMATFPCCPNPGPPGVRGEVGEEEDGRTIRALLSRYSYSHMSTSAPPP
# Procedure: CCK-8 sulphated was radiolabelled with ^125 I-Bolton Hunter reagent (2000 Ci/mmole). Receptor binding was performed according to Chang and Lotti (Proc. Natl. Acad. Sci. 83, 4923-4926, 1986) with minor modifications.
# Male Sprague-Dawley rats (150-200 g) were sacrificed by decapitation. The whole pancreas was dissected free of fat tissue and was homogenized in 25 volumes of ice-cold 10 mM Hepes buffer with 0.1% soya bean trypsin inhibitor (pH 7.4 at 25° C.) with a Kinematica Polytron. The homogenates were centrifuged at 47,800 g for 10 min. Pellets were resuspended in 10 volumes of binding assay buffer (20 mM Hepes, 1 mM EGTA, 5 mM MgCl2, 150 mM NaCl, bacitracin 0.25 mg/ml, soya bean trypsin inhibitor 0.1 mg/ml, and bovine serum albumin 2 mg/ml, pH 6.5 at 25° C.) using a teflon homogenizer, 15 strokes at 500 rpm. The homogenate was further diluted in binding assay buffer to give a final concentration of 0.5 mg original wet weight/1 ml buffer. […] All assays were run in duplicate. […] The radioactivity on the filters was counted with a LKB gamma counter.
# as §1
# [1] = target: T3, Gastrin receptor (gastric glands) (Cavia porcellus, UniProt H0VZC5); assay: Gastrin Receptor Binding in Guinea Pig Gastric Glands, 125I-gastrin; parameters: species or system guinea pigs, male Hartley; conditions: 125I-gastrin 0.1 nM, 25° C., 30 minutes, read-out: CCK RECEPTOR BINDING RESULTS IC50, 125I-Gastrin Gastric Glands
# T3 construct: from tissue; host or cells: guinea pig gastric mucosal glands (male Hartley)
# T3 sequence (H0VZC5 1-426): T1 sequence (H0VZC5 1-426)
# Procedure: Gastrin antagonist activity of compounds of Formula I is determined using the following assay.
# A. Gastrin Receptor Binding in Guinea Pig Gastric Glands
# Guinea pig gastric mucosal glands were prepared by the procedure of Chang et al., Science 230, 177-179 (1985) with slight modification. Gastric mucosa from guinea pigs (300-500 g body weight, male Hartley) were isolated by scraping with a glass slide after washing stomachs in ice-cold, aerated buffer consisting of the following: 130 mM NaCl, 12 mM NaHCO3, 3 mM NaH2 PO4, 3 mM Na2 HPO4, 3 mM K2 HPO4, 2 mM MgSO4, 1 mM CaCl2, 5 mM glucose and 4 mM L-glutamine, 50 mM HEPES, 0.25 mg/ml bacitracin, 0.10 mg/ml soya bean trypsin inhibitor, 0.1 mg/ml bovine serum albumin, at pH 6.5, and then incubated in a 37° C. shaking water bath for 40 minutes in buffer containing 1 mg/ml collagenase and bubbled with 95% O2 and 5% CO2. The tissues were passed twice through a 5 ml syringe to liberate the gastric glands, and then filtered through Nitex #202 gauge nylon mesh. The filtered glands were centrifuged at 272 g for 5 minutes and washed twice by resuspension in 25 ml buffer and centrifugation.
# The washed guinea pig gastric glands prepared as above were resuspended in 25 ml of standard buffer. […] The radioactivity on the filters was measured using a LKB gamma counter.
# gastrin = conditions: in words, in vitro; cited from earlier work
# [2] = guinea pig cortex, 125I-CCK-8 50 pM, 25° C., 2 hours, read-out: CCK RECEPTOR BINDING RESULTS IC50, 125I-CCK Brain
SMILES,IC50 (CCK receptor (brain); [2]) [nM],CCK antagonist activity (CCK receptor),other results
"Cc1cccc(NC(=O)NC2N=C(c3ccccc3)c3ccccc3N(Cc3n[nH]c(C)n3)C2=O)c1 (racemic) [Example 4, N-{1,3-Dihydro-1-[5-(2-methyl-1,3,4-triazolo)-methylene]-2-oxo-5-phenyl-1H-1,4-benzodiazepin-3-yl}-N'-{[3-methylphenyl]-urea}]",10,,
"Cc1cccc(NC(=O)N[C@@H]2N=C(c3ccccc3)c3ccccc3N(C)C2=O)c1 [(R)-N-(2,3-dihydro-1-methyl-2-oxo-5-phenyl-1H-1,4-benzodiazepin-3-yl)-N^1-(3-methylphenyl) urea]",,,CCK-B receptor antagonism / selectivity (brain CCK (CCK-B)): potent and selective antagonist of CCK-B receptors
CSCC[C@H](NC(=O)OC(C)(C)C)C(=O)N[C@@H](CC(=O)O)C(=O)N[C@@H](Cc1ccccc1)C(N)=O [Boc-Met-Asp-Phe-NH2] (Boc-Met-Asp-Phe-NH2),,can function as CCK antagonists,
CSCC[C@H](NC(=O)[C@H](Cc1ccc(OS(=O)(=O)O)cc1)NC(=O)OCc1ccccc1)C(=O)NCC(=O)N[C@@H](Cc1c[nH]c2ccccc12)C(=O)N[C@@H](CCSC)C(=O)N[C@@H](CC(=O)O)C(N)=O [Cbz-Tyr(SO3 H)-Met-Gly-Trp-Met-Asp-NH2] (Cbz-[sY]MGWMD-NH2),,can function as CCK antagonists; also recorded: partial agonist,
"Cc1cccc(NC(=O)NC2N=C(c3ccccc3)c3ccccc3N(Cc3c[nH]cn3)C2=O)c1 (stereo not shown) [Example 1, N-{1,3-Dihydro-1-[1H-4-imidazolyl]methyl-2-oxo-5-phenyl-1H-1,4-benzodiazepin-3-yl}-N'-{[3-methylphenyl]-urea}]",7.9,,IC50 (CCK receptor (pancreas)): 11 nM; IC50 [1]: 3.6 nM
"O=C(Nc1cccc(-c2nn[nH]n2)c1)N[C@@H]1N=C(c2ccccc2)c2ccccc2N(CC(=O)N2CCCC2)C1=O [Example 2, N-{3-(R)-1,3-Dihydro-1-(pyrrolidinylcarbonyl)methyl-2-oxo-5-phenyl-1H-1,4-benzodiazepin-3(R)-yl}-N'-{[3-(1H-tetrazol-5-yl)phenyl]urea}]",0.12,,
"Cc1cccc(NC(=O)NC2N=C(c3ccccc3)c3ccccc3N(Cc3ncc[nH]3)C2=O)c1 (stereo not shown) [Example 3, N-{1,3-Dihydro-1-[1H-2-imidazolyl]methyl-2-oxo-5-phenyl-1H-1,4-benzodiazepin-3-yl}-N'-{[3-methylphenyl]-urea}]",,,IC50 (CCK receptor (pancreas)): 258 nM; IC50 (CCK receptor (brain)): 58.9 nM
CSCC[C@H](N)C(=O)N[C@@H](CC(=O)O)C(=O)N[C@@H](Cc1ccccc1)C(N)=O [Met-Asp-Phe-NH2] (H-Met-Asp-Phe-NH2),,can function as CCK antagonists,
CCCC(=O)Nc1nc2c(ncn2[C@@H]2O[C@@H]3COP(=O)(O)O[C@H]3[C@H]2OC(=O)CCC)c(=O)[nH]1 [dibutyryl cyclic GMP],,most potent,
CCCN(CCC)C(=O)C(CCC(=O)O)NC(=O)c1ccccc1 (stereo not shown) [proglumide],,,gastrin antagonist activity (gastrin): very weak in vitro antagonists

# — patent US5218115A, “Cholecystokinin antagonists” (Merck & Co., Inc., priority 1992, dated 1993)
